ChEMBL document CHEMBL4813922, “Discovery of a novel small-molecule inhibitor of Fam20C that induces apoptosis and inhibits migration in triple negative breast cancer” (Eur J Med Chem, 2021)

Experiments:
[1] = biological target: T1, Extracellular serine/threonine protein kinase FAM20C (Homo sapiens) (UniProt Q8IXL6); assay: Inhibition of Fam20C (unknown origin) assessed as reduction in inorganic phosphate release in presence of ATP at 10 uM measured by Malachite green phosphate staining based micro plate reader assay relative to control
T1 sequence (whole entry): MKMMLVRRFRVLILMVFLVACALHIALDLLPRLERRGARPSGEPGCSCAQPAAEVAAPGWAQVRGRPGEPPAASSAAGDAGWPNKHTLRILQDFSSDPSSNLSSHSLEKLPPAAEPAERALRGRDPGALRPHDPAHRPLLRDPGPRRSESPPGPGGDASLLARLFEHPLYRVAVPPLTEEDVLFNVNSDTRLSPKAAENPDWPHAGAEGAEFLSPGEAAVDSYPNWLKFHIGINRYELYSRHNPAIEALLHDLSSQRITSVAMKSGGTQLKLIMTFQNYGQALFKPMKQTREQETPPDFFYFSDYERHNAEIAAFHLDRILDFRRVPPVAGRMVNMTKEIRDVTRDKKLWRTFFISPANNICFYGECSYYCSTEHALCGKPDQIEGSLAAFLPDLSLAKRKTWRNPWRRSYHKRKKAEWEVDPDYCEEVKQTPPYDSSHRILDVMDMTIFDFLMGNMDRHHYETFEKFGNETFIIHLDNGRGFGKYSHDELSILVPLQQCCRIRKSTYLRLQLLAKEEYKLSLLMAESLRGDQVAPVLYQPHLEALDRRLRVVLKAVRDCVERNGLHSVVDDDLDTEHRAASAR

MCF7 = assay: Antiproliferative activity against human MCF7 cells measured by MTT assay; type: functional, cell-based
MDA-MB-231 = assay: Antiproliferative activity against human MDA-MB-231 cells measured by MTT assay; type: functional, cell-based
MDA-MB-468 = assay: Antiproliferative activity against human MDA-MB-468 cells measured by MTT assay; type: functional, cell-based

| SMILES | inhibition [1] | IC50 (MCF7) | IC50 (MDA-MB-231) | IC50 (MDA-MB-468) |
| --- | --- | --- | --- | --- |
| COc1ccc(C(=O)Nc2ccc(Nc3nc(C)cc(Nc4cc(OC)c(OC)c(OC)c4)n3)cc2)cc1 | 49% | > 50 µM | 7.2 µM | 3.62 µM |
| COc1ccc(C(=O)Nc2ccc(Nc3nccc(Nc4ccc(OC)cc4C)n3)cc2)cc1 | 23% | > 50 µM | 23.3 µM | > 50 µM |
| COc1ccc(S(=O)(=O)Nc2ccc(Nc3nccc(-c4ccccc4)n3)cc2)cc1 | 10% | > 50 µM | > 50 µM | > 50 µM |
| COc1ccc(Nc2cc(C)nc(Nc3ccc(NS(=O)(=O)c4c(Cl)cc(C)cc4OC)cc3)n2)cc1 | 12% | > 50 µM | > 50 µM | > 50 µM |
| COc1ccc(S(=O)(=O)Nc2ccc(Nc3nc(C)cc(Nc4ccc(OC)c(O)c4)n3)cc2)cc1 | 11% | > 50 µM | > 50 µM | > 50 µM |
| Cc1cc(Nc2ccc(F)cc2)nc(Nc2ccc(NS(=O)(=O)c3ccccc3OC(F)(F)F)cc2)n1 | 23% | > 50 µM | 23.8 µM | 42.2 µM |

Other lines, results leading:

| inhibition [1] | IC50 (MCF7) | IC50 (MDA-MB-231) | IC50 (MDA-MB-468) | SMILES |
| --- | --- | --- | --- | --- |
| 18% | > 50 µM | 27.8 µM | > 50 µM | Cc1ccc(S(=O)(=O)Nc2ccc(Nc3nc(Nc4ccc(F)cc4)cc(C(F)(F)F)n3)cc2)c(Cl)c1 |
| 43% | > 50 µM | 21.2 µM | > 50 µM | COc1ccc(Nc2cc(C(F)(F)F)nc(Nc3ccc(NS(=O)(=O)c4ccc(OC)cc4)cc3)n2)cc1 |
| 24% | 16.7 µM | 20.8 µM | > 50 µM | O=S(=O)(Nc1ccc(Nc2nc(Nc3ccc(F)cc3)cc(C(F)(F)F)n2)cc1)c1ccccc1OC(F)(F)F |
| 40% | > 50 µM | 15.3 µM | > 50 µM | COc1ccc(Nc2cc(C)nc(Nc3ccc(NS(=O)(=O)c4ccccc4Cl)cc3)n2)cc1 |
| 21% | > 50 µM | 43.6 µM | > 50 µM | COc1ccc(Nc2cc(C(F)(F)F)nc(Nc3ccc(NS(=O)(=O)c4ccccc4Cl)cc3)n2)cc1 |
